# Legend:
# [1] = target: Protein kinase C delta type (Homo sapiens, UniProt Q05655); test: Inhibition of human full length PKCdelta
# [2] = species on record: Homo sapiens; test: Selectivity ratio of IC50 for human full length PKCdelta to IC50 for human full length PKCtheta
# [3] = target: Tyrosine-protein kinase Lyn (Homo sapiens, UniProt P07948); test: Inhibition of Lyn
# [4] = target: Protein kinase C theta type (Homo sapiens, UniProt Q04759); test: Inhibition of human full length PKCtheta
# [5] = Metabolic stability in human liver microsomes; format: ADME, Microsome
# [6] = target: MAP kinase-activated protein kinase 2 (Homo sapiens, UniProt P49137); test: Inhibition of MK2
# [7] = target: Tyrosine-protein kinase HCK (Homo sapiens, UniProt P08631); test: Inhibition of Hck
# [8] = target: Protein kinase C eta type (Homo sapiens, UniProt P24723); test: Inhibition of human full length PKCeta
# [9] = target: T1, Protein kinase C epsilon type (Homo sapiens, UniProt Q02156); test: Inhibition of human full length PKCepsilon
# T1 sequence (Q02156 whole entry): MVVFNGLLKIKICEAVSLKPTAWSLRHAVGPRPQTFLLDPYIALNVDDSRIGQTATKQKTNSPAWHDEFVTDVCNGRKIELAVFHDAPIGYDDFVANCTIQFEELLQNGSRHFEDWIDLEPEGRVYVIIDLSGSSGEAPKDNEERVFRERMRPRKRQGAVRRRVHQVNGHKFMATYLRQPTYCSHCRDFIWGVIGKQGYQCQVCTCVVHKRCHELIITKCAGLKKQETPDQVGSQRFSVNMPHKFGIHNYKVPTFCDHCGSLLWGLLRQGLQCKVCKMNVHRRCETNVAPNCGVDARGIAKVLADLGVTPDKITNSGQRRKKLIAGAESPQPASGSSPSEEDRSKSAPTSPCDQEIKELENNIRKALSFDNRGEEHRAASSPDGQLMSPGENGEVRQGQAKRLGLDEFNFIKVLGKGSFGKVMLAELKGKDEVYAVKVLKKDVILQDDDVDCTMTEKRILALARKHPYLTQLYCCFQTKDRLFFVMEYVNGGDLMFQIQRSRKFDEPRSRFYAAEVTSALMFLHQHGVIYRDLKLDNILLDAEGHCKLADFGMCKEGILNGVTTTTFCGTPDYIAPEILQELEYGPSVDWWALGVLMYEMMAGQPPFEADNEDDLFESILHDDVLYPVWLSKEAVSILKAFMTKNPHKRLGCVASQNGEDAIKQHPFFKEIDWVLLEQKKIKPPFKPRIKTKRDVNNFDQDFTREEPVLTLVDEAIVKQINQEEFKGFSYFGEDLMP
# [10] = Inhibition of PDGFR
# [11] = target: Proto-oncogene tyrosine-protein kinase Src (Homo sapiens, UniProt P12931); test: Inhibition of Src
# [12] = Membrane permeability by PAMPA; format: ADME; details: read-out: permeability
# [13] = Inhibition of p38
# [14] = Solubility at pH 7.4; format: physicochemical; details: buffer
# [15] = Metabolic stability in rat liver microsomes; format: ADME, Microsome
# [16] = Inhibition of VEGFR
# [17] = target: Protein kinase C beta type (Homo sapiens, UniProt P05771); test: Inhibition of human full length PKCbeta
# [18] = Metabolic stability in mouse liver microsomes; format: ADME, Microsome
# [19] = target: Tyrosine-protein kinase Fyn (Homo sapiens, UniProt P06241); test: Inhibition of Fyn
# [20] = target: Tyrosine-protein kinase Lck (Homo sapiens, UniProt P06239)
# Sequence of Tyrosine-protein kinase Lyn (P07948 whole entry): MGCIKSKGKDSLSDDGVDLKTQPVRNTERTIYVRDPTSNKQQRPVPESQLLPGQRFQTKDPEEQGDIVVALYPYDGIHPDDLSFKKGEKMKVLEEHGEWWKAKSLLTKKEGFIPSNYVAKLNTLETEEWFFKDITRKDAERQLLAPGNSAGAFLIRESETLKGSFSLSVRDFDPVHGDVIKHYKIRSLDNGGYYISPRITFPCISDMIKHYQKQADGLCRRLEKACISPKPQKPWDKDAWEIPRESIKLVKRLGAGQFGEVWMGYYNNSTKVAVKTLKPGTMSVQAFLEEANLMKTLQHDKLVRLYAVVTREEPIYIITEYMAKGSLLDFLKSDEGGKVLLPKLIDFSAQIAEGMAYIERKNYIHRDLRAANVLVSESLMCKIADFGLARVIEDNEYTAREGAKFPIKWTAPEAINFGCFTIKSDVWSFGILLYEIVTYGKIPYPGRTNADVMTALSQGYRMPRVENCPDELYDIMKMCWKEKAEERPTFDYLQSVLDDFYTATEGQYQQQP
# Sequence of Protein kinase C theta type (Q04759 whole entry): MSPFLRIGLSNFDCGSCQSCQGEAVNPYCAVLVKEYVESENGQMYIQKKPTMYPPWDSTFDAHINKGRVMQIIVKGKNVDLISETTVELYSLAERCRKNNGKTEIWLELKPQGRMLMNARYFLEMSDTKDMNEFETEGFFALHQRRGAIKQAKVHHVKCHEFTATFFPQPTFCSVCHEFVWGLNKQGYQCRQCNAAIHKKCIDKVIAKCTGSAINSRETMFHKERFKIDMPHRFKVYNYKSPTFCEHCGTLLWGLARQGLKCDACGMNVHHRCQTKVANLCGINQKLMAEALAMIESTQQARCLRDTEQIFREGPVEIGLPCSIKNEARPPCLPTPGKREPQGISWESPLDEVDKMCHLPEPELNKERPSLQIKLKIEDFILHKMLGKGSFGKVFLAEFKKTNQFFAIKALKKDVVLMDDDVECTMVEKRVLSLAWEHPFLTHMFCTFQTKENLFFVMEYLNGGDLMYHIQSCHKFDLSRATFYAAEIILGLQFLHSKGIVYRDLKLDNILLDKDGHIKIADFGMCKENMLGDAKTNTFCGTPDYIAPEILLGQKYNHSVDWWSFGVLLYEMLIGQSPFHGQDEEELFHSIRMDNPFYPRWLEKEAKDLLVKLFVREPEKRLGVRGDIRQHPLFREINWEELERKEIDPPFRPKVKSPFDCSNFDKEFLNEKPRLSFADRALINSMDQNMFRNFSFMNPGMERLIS
# Sequence of Protein kinase C delta type (Q05655 whole entry): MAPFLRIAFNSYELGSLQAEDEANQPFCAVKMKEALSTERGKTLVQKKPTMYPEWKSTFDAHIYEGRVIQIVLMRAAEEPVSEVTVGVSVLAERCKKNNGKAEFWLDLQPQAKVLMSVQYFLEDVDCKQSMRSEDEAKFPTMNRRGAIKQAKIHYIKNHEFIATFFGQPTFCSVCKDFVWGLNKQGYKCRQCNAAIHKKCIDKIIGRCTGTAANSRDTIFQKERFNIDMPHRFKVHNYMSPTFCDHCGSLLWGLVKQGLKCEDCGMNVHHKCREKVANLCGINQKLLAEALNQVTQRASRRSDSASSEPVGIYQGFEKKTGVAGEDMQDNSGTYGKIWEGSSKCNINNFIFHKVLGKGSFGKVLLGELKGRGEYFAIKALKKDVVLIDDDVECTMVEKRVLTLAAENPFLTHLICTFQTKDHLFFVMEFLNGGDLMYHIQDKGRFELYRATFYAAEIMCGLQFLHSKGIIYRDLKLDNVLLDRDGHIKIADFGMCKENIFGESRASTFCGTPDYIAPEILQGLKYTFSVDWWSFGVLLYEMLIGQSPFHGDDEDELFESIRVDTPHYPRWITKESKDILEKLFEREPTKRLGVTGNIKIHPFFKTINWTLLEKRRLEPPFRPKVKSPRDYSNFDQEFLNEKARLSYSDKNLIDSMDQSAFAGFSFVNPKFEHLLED
# Sequence of Tyrosine-protein kinase HCK (P08631 whole entry): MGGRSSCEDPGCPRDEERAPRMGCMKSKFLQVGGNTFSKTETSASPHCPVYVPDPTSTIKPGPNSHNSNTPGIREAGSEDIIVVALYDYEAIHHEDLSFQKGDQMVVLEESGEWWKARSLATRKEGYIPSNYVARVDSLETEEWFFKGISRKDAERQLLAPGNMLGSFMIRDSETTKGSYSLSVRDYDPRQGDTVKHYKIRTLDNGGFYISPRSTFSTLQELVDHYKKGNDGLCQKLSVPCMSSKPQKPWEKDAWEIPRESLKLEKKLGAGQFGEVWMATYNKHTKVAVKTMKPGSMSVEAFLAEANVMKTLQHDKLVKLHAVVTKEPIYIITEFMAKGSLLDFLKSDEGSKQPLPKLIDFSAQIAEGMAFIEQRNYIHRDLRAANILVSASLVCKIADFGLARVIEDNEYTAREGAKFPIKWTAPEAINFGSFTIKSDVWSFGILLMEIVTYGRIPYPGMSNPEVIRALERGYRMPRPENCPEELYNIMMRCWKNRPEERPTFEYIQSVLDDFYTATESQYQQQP
# Sequence of Tyrosine-protein kinase Fyn (P06241 whole entry): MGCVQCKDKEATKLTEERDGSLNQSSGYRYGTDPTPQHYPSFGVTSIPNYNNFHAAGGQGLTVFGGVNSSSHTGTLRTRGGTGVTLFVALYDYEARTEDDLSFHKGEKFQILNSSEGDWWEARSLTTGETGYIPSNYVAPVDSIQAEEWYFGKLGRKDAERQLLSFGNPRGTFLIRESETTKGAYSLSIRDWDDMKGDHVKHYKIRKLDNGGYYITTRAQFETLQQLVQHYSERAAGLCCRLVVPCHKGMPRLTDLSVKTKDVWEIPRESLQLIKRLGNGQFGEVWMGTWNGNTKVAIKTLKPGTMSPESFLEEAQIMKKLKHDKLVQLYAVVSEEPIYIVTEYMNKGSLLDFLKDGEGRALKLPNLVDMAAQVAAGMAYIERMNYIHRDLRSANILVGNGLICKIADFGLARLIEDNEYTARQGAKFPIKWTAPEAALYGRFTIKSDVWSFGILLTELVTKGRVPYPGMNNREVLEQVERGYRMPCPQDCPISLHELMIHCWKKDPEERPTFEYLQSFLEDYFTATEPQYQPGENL
# Sequence of Protein kinase C eta type (P24723 whole entry): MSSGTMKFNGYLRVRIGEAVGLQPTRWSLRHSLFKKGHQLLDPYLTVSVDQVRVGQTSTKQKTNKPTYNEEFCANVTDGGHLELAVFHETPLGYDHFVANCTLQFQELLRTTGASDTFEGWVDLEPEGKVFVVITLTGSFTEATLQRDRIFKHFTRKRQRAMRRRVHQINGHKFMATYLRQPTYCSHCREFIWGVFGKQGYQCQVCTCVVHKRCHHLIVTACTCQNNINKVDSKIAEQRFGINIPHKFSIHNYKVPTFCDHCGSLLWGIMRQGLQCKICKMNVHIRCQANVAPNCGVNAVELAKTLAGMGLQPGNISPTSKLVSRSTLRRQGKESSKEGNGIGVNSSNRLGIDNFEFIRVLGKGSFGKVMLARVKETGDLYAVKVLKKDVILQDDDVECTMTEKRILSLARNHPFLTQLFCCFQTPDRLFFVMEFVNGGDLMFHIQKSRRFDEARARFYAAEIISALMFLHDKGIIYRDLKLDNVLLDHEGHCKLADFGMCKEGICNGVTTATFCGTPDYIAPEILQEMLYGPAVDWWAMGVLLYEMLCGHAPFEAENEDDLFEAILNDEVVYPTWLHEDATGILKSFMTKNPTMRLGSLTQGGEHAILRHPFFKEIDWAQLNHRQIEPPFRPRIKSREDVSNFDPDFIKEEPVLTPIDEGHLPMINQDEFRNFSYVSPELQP
# Sequence of MAP kinase-activated protein kinase 2 (P49137 whole entry): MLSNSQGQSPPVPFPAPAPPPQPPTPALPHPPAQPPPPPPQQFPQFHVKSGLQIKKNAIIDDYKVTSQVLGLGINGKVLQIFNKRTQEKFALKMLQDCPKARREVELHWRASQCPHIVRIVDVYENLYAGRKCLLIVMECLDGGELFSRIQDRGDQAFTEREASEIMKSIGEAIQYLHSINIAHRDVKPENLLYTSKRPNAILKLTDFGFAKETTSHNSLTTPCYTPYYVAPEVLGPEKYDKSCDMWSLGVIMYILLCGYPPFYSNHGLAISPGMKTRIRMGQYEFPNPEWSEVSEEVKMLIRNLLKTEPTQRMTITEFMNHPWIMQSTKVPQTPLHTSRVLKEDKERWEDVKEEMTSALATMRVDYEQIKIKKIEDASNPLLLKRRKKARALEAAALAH
# Sequence of Protein kinase C beta type (P05771 whole entry): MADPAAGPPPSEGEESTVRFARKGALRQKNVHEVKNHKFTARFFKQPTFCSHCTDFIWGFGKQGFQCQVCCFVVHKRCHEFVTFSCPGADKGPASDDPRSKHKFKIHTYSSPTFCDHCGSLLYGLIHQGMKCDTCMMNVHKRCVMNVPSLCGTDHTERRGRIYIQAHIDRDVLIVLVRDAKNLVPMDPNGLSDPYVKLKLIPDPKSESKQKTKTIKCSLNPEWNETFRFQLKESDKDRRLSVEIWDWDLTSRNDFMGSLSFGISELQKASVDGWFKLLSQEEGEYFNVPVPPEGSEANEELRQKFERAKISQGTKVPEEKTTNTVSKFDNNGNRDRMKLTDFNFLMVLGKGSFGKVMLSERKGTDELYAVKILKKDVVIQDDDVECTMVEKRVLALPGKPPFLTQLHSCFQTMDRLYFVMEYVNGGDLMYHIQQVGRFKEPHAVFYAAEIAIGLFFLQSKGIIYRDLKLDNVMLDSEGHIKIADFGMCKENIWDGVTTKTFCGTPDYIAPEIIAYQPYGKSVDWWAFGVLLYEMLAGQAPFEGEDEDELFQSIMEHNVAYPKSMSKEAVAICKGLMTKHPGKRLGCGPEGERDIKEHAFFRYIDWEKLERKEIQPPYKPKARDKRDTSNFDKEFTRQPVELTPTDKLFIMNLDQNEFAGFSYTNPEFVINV
SMILES,IC50 [1] [µM],Ratio IC50 [2],IC50 [3] [µM],IC50 [4] [µM],also measured
CCOc1ccc(CN(C)C)cc1-c1cc2c(Nc3ccc4[nH]ccc4c3C)c(C#N)cnc2s1,0.082,9,0.074,0.0092,–
COc1ccc(CN(C)C)c(-c2cc3c(Nc4ccc5[nH]ccc5c4C)c(C#N)cnc3s2)c1,0.13,–,13,–,half-life [5]: < 10 min; IC50 [6]: > 5 µM; IC50 [7]: > 5 µM; IC50 [8]: 0.36 µM; IC50 [9]: 0.095 µM; IC50 [10]: > 5 µM; IC50 [11]: > 5 µM; Papp [12]: 1.04 ×10⁻⁶ cm/s; IC50 [13]: > 5 µM; solubility [14]: 12 µg/mL; half-life [15]: < 10 min; IC50 [16]: > 5 µM; IC50 [17]: 22 µM; half-life [18]: < 10 min; IC50 [19]: > 5 µM
Cc1c(Nc2c(C#N)cnc3sc(-c4ccccc4CN(C)C)cc23)ccc2[nH]ccc12,0.38,–,37,–,–
N#Cc1cnc2sc(-c3ccccc3)cc2c1Nc1ccc2[nH]ccc2c1,–,–,–,0.052,–
COc1ccccc1-c1cc2c(Nc3ccc4[nH]ccc4c3C)c(C#N)cnc2s1,0.25,10,0.31,0.023,–
Cc1c(Nc2c(C#N)cnc3sc(-c4cccc(CN(C)C)c4)cc23)ccc2[nH]ccc12,–,4,0.52,–,–
COc1c(CN(C)C)cccc1-c1cc2c(Nc3ccc4[nH]ccc4c3C)c(C#N)cnc2s1,0.027,2,1.7,–,–
Cc1c(Nc2c(C#N)cnc3sc(-c4ccc(CN(C)C)cc4)cc23)ccc2[nH]ccc12,0.088,–,0.1,–,–
Cc1ccc(CN(C)C)cc1-c1cc2c(Nc3ccc4[nH]ccc4c3C)c(C#N)cnc2s1,0.41,4,0.23,–,–
COc1ccc(CN(C)C)cc1-c1cc2c(Nc3ccc4[nH]ccc4c3C)c(C#N)cnc2s1,0.024,–,0.023,0.0087,IC50 [20]: 0.006 µM
Cc1c(Nc2c(C#N)cnc3sc(-c4cncc(CN(C)C)c4)cc23)ccc2[nH]ccc12,0.17,–,2.2,0.084,–
Cc1c(Nc2c(C#N)cnc3sc(-c4csc(CN(C)C)c4)cc23)ccc2[nH]ccc12,0.051,–,0.41,–,–
